According to US12201626B2, “Bifunctional compositions for the treatment of cancer” (ARMACEUTICA, INC., priority 2018, dated 2025):
Read-outs that look alike come from different tables or passages of the source. Where a SMILES comes first, the peptide text is derived from it. The star is where a group is joined. Cbz = O=C(OCc1ccccc1)*

Columns and labels:
HL-60 cells = assay: Phosphatidylserine externalization, annexin V-FITC/PI flow cytometry; assay type: cell-based, human; details: positive control, 24 h
Description: (§1) To determine whether cell death induced by PND was occurring through apoptosis or necrosis, MDA-MB-231 and HL-60 cells were stained with annexin V-FITC and PI and monitored via flow cytometry. Cells were seeded in 24-well plates at a density of 100,000 for adherent MDA-MB-231 and 200,000 HL-60 cells in 1 ml of culture media. After overnight incubation, cells were treated with PND, and incubated for an additional 24 h. For MDA-MB-231 cells, unattached cells were harvested in an ice-cold tube, while adhered cells were detached by using HyQtase (Thermo Fisher) and incubated for around 5 min at 37° C. Both unattached and detached cells harvested from each individual well were washed with ice-cold PBS and centrifuged at 260×g for 5 min. HL-60 were centrifuged directly after the incubation period as they grow in suspension. Cells were then stained with a mixture of annexin V-FITC and PI in 100 μl of binding buffer and incubated on ice in the dark for 15 minutes, following the manufacturer's instructions (Beckman Coulter). Lastly, the cells were resuspended by the addition of 400 μl of ice-cold binding buffer and analysed by flow cytometry (Cytomics FC500; Beckman Coulter). For this series of experiments, cells treated with PBS, as solvent control; treated with H2O2, as a positive control of cytotoxicity; and untreated were included and processed in parallel. For each sample, 10,000 events/cells were collected and analysed using CXP software (Beckman Coulter). Both the experimental samples and their controls were processed similarly and assessed in triplicate. The sum of both early and late stages of apoptosis was calculated to obtain the total percentage of apoptotic cells.

MDA-MB-231 cells = assay: as above; assay type: cell-based, human; details: positive control, 24 h
Description: as §1

[1] = system: MDA-MB-231 breast cancer line; assay: cells; assay type: cell-based, human
Description: PND was added to cultures of the MDA-MB-231 breast cancer line 24 hours after the cells were treated with a selection of known commercial chemotherapeutic drugs, before the cells were analyzed for cell death. Each of the drugs are known to have serious side-effects at the does commonly administered for the treatment of cancer. The dose of the chemotherapeutic drugs was reduced to one half, one fourth, one eighth, and one sixteenth of the initial dose; while the dose of PND was kept the same. The effect of these combinational therapies was measured by the concentration of each compound needed to be cytotoxic to at least 50 percent of cancer cells (CC50).

[2] = system: plasmid dsDNA (pCMV-dR8.91); assay: DNA mobility-shift assay (agarose gel); assay type: binding; parameters: DNA mobility shift: unit of the concentration uncertain
Description: Typically, an experimental compound intercalating or binding to double stranded (ds) DNA will increase the molecular mass resulting from forming complexes, decreasing its electrophoretic mobility in an agarose gel, as compared with untreated dsDNA. To explore the potential interaction between PND and dsDNA, a DNA mobility-shift assay was conducted. Each reaction mixture was of 10 μl total volume in PBS pH 7.4. Both PND (Sigma-Aldrich) and quinacrine (Sigma-Aldrich) were tested with three individual concentrations of 1 μM, 0.5 μM or 0.25 μM, respectively. To each reaction mixture, 100 ng of plasmid dsDNA (pCMV-dR8.91; Addgene, Cambridge, MA) was added and the mixture was then incubated for 30 min at 37° C. and stopped by adding 2 μl of 6× gel loading buffer and placed on ice. The potential binding interaction between both PND and quinacrine with dsDNA were analyzed by using 1% (w/v) agarose-gel electrophoresis dissolved in TAE buffer (0.04 M Tris base, 0.04 M acetate and 0.001 M EDTA) pH 8.0. To stain the dsDNA complexes, Ethidium bromide was added to the agarose gel throughout the electrophoresis process at a concentration of 0.5 μg/ml. DNA migration was visualized by utilizing a gel documentation system and pictures were captured by using a UV-light transilluminator (Alpha Innotech, San Leandro, CA). The well-known DNA intercalator fluorescent compound, propidium iodide (PI), was included as positive controls at 1 μg per reaction. As a control, untreated plasmid DNA was included to determine its normal electrophoretic mobility in the gel.

[3] = Homo sapiens, MDA-MB-231, read-out: initial dose (CC50)

OO [H2O2, hydrogen peroxide] was tested, and the “mode of cytotoxic effect (apoptosis or necrosis)” value (HL-60 cells) was “necrosis” and the “mode of cytotoxic effect (apoptosis or necrosis)” value (MDA-MB-231 cells) was “apoptosis”.
CC(C)C[C@@H](C=O)NC(=O)[C@H](CC(C)C)NC(=O)[C@H](CC(C)C)NC(=O)OCc1ccccc1 [MG132] (Cbz-Leu-Leu-Leu-aldehyde) showed a CC50 [1, 3] of 0.5 µM.
With CC[N+](C)(CC)CCC[n+]1c(-c2ccccc2)c2cc(N)ccc2c2ccc(N)cc21.[I-].[I-] [PI, propidium iodide] the DNA mobility shift ([2]; positive control, 1 μg per reaction) was “provoked retardation of the DNA mobility”.
CC(C)C[C@H](NC(=O)[C@H](Cc1ccccc1)NC(=O)c1cnccn1)B(O)O [bortezomib] gave a CC50 [1, 3] of 0.01 µM.
In the case of N.N.[Cl][Pt][Cl] [cisplatin], the CC50 [1] is reported as 95.4 µM.
In the case of Nc1ccn([C@@H]2O[C@H](CO)[C@@H](O)C2(F)F)c(=O)n1 [gemcitabin], the CC50 [1, 3] is reported as 0.44 µM.
In the case of CCN(CC)CCCC(C)Nc1c2ccc(Cl)cc2nc2ccc(OC)cc12 (stereo not shown) [quinacrine], the DNA mobility shift ([2]; 0.5 and 0.25 mM, 100 ng plasmid DNA) is reported as “clear retardation mobility of the DNA”, the DNA mobility shift ([2]; 1 (unit uncertain), 100 ng plasmid DNA, 30 min 37° C.) is reported as “maximum retardation of DNA mobility” and the DNA degradation ([2]; fragments smaller than free supercoiled DNA) is reported as “did not exhibit any DNA degradation activity”.
